Like-named read-outs stand apart in the source and are kept apart here.
Experiments:
[1] = commercially available formulations; cited from earlier work
[2] = background statement; cited from earlier work
[3] = anesthetic induction doses; cited from earlier work
Water solubility = type: physicochemical; details: degradation products of the prodrug
[4] = DIP (propofol) formation by hydrolysis at accelerated stability conditions as a function of pH; type: physicochemical; details: for DIP formation: 40° C./75% RH
Description: This example illustrates that the degradation of O-phosphonooxymethyl propofol is pH dependent. In particular, higher pH conditions generally result in lower rates of hydrolysis (degradation) of the prodrug, while lower pH conditions increase the rate of hydrolysis. […]

In the case of `CC(C)c1cccc(C(C)C)c1O` [propofol], the Oral bioavailability [1] is listed as “very low”, the Water solubility [2] is listed as “poorly water soluble” and the “Respiratory consequences, including a reduction in tidal volume and apnea” value [3] is listed as “up to 83 % of patients”. The Water solubility (Water solubility) was “poorly water-soluble”.
For quinone, the Water solubility (Water solubility) was “poorly water-soluble”.
Molecule `CC(C)c1cccc(C(C)C)c1OCOP(=O)(O)O` [O-phosphonooxymethyl propofol, O-phosphonooxymethyl-propofol] has a DIP formation ([4]; pH 6.9, 1 month) of 1.22 % w/v, a DIP formation ([4]; pH 6.9, 3 months) of 1.90 % w/v and a DIP formation ([4]; pH 6.9, 6 months) of 3.47 % w/v. It also gave a DIP formation ([4]; pH 7.4, 1 month) of 0.83 % w/v, a DIP formation ([4]; pH 7.4, 3 months) of 0.67 % w/v and a DIP formation ([4]; pH 7.4, 6 months) of 2.14 % w/v. The DIP formation ([4]; pH 8.0, 1 month) was 0.32 % w/v, the DIP formation ([4]; pH 8.0, 3 months) was 0.76 % w/v and the DIP formation ([4]; pH 8.0, 6 months) was 0.72 % w/v. The DIP formation ([4]; pH 8.5, 1 month) was 0.15 % w/v, the DIP formation ([4]; pH 8.5, 3 months) was 0.41 % w/v and the DIP formation ([4]; pH 8.5, 6 months) was 0.73 % w/v. It also gave a DIP formation ([4]; pH 9.1, 3 months) of 0.12 % w/v, a DIP formation ([4]; pH 9.1, 6 months) of 0.22 % w/v and a DIP formation ([4]; pH 9.9, 6 months) of 0.09 % w/v. For the same molecule, the Amount of hydrolysis ([4]; pH of about 9-9.5, 40° C., 75% RH) was “least amount of hydrolysis”.
For `Oc1ccc(O)cc1` [hydroquinone], the Water solubility (Water solubility) was “poorly water-soluble”.
